Species: Rattus norvegicus
Assay: Open TG-GATES - Regimen: Single
Format: toxicity, organism-based, Sprague-Dawley
Parameters: regimen Single, gender Male, age 6 weeks
Conditions: in vivo, po, 300 mg/kg, route gavage, dose level High; for APTT / Bas / Eos / Fbg / Hb / Ht / Lym / MCH / MCHC / MCV / Mono / Neu / PT / Plat / RBC / Ret / WBC: tissue Blood; for KIDNEY_L / KIDNEY_R / KIDNEY_TOTAL: tissue Kidney; for LIVER: tissue Liver; for A/G / ALP / ALT / AST / BUN / CRE / Ca / Cl / DBIL / GLC / IP / K / LDH / Na / PL / RALB / TBIL / TC / TG / TP / gamma-GTP: tissue Plasma

CCCNC(=O)NS(=O)(=O)c1ccc(Cl)cc1 [CHLORPROPAMIDE]
TERMINAL_BW (3 h): 198 g
APTT (3 h): 20.5 s
Bas (3 h): 0%
Eos (3 h): 0.6%
Fbg (3 h): 309.8 mg/dL
Hb (3 h): 14.6 g/dL
Ht (3 h): 45.2%
Lym (3 h): 74.8%
MCH (3 h): 20.8 pg
MCHC (3 h): 32.2%
MCV (3 h): 64.6 fL
Mono (3 h): 4.6%
Neu (3 h): 18.6%
PT (3 h): 15.7 s
Plat (3 h): 121.4 x10_4/uL
RBC (3 h): 700.6 x10_4/ul
Ret (3 h): 9.7%
WBC (3 h): 57 x10_2/uL
KIDNEY_L (3 h): 0.8 g
KIDNEY_R (3 h): 0.9 g
KIDNEY_TOTAL (3 h): 1.7 g
LIVER (3 h): 9.1 g
A/G (3 h): 0.9
ALP (3 h): 1404.2 IU/L
ALT (3 h): 46.4 IU/L
AST (3 h): 80.8 IU/L
BUN (3 h): 12 mg/dL
CRE (3 h): 0.2 mg/dL
Ca (3 h): 10.8 mg/dL
Cl (3 h): 105.4 meq/L
DBIL (3 h): 0.008 mg/dL
GLC (3 h): 147.4 mg/dL
IP (3 h): 10.1 mg/dL
K (3 h): 3.8 meq/L
LDH (3 h): 86 IU/L
Na (3 h): 143.8 meq/L
PL (3 h): 126.8 mg/dL
RALB (3 h): 2.8 g/dL
TBIL (3 h): 0.018 mg/dL
TC (3 h): 71.8 mg/dL
TG (3 h): 60 mg/dL
TP (3 h): 6 g/dL
gamma-GTP (3 h): 1 IU/L
TERMINAL_BW (6 h): 195 g
APTT (6 h): 19.7 s
Bas (6 h): 0%
Eos (6 h): 1%
Fbg (6 h): 344.4 mg/dL
Hb (6 h): 14.6 g/dL
Ht (6 h): 44.7%
Lym (6 h): 72.2%
MCH (6 h): 21.7 pg
MCHC (6 h): 32.6%
MCV (6 h): 66.6 fL
Mono (6 h): 4.2%
Neu (6 h): 21.4%
PT (6 h): 16.1 s
Plat (6 h): 105.8 x10_4/uL
RBC (6 h): 670.8 x10_4/ul
Ret (6 h): 9%
WBC (6 h): 59.6 x10_2/uL
KIDNEY_L (6 h): 0.9 g
KIDNEY_R (6 h): 0.9 g
KIDNEY_TOTAL (6 h): 1.8 g
LIVER (6 h): 8 g
A/G (6 h): 0.9
ALP (6 h): 1619.2 IU/L
ALT (6 h): 45.2 IU/L
AST (6 h): 77.4 IU/L
BUN (6 h): 14.8 mg/dL
CRE (6 h): 0.2 mg/dL
Ca (6 h): 10.9 mg/dL
Cl (6 h): 106.2 meq/L
DBIL (6 h): 0.004 mg/dL
GLC (6 h): 108.4 mg/dL
IP (6 h): 10.2 mg/dL
K (6 h): 4.1 meq/L
LDH (6 h): 82.6 IU/L
Na (6 h): 143.2 meq/L
PL (6 h): 135.8 mg/dL
RALB (6 h): 2.8 g/dL
TBIL (6 h): 0.018 mg/dL
TC (6 h): 79.8 mg/dL
TG (6 h): 46.6 mg/dL
TP (6 h): 6 g/dL
gamma-GTP (6 h): 1.2 IU/L
TERMINAL_BW (9 h): 193.3 g
APTT (9 h): 19.1 s
Bas (9 h): 0.4%
Eos (9 h): 0.8%
Fbg (9 h): 391.6 mg/dL
Hb (9 h): 13.4 g/dL
Ht (9 h): 41.5%
Lym (9 h): 72.2%
MCH (9 h): 21.3 pg
MCHC (9 h): 32.3%
MCV (9 h): 65.8 fL
Mono (9 h): 3%
Neu (9 h): 23.2%
PT (9 h): 16.8 s
Plat (9 h): 118.3 x10_4/uL
RBC (9 h): 629.8 x10_4/ul
Ret (9 h): 8.9%
WBC (9 h): 93.5 x10_2/uL
KIDNEY_L (9 h): 0.9 g
KIDNEY_R (9 h): 0.9 g
KIDNEY_TOTAL (9 h): 1.7 g
LIVER (9 h): 8.2 g
A/G (9 h): 0.9
ALP (9 h): 1339.6 IU/L
ALT (9 h): 46.8 IU/L
AST (9 h): 83.2 IU/L
BUN (9 h): 15.4 mg/dL
CRE (9 h): 0.2 mg/dL
Ca (9 h): 10.9 mg/dL
Cl (9 h): 106.4 meq/L
DBIL (9 h): 0.008 mg/dL
GLC (9 h): 96.8 mg/dL
IP (9 h): 10.3 mg/dL
K (9 h): 3.9 meq/L
LDH (9 h): 85.2 IU/L
Na (9 h): 143.6 meq/L
PL (9 h): 127.8 mg/dL
RALB (9 h): 2.7 g/dL
TBIL (9 h): 0.022 mg/dL
TC (9 h): 72.4 mg/dL
TG (9 h): 50.6 mg/dL
TP (9 h): 5.8 g/dL
gamma-GTP (9 h): 1.2 IU/L
TERMINAL_BW (24 h): 201.3 g
APTT (24 h): 21.1 s
Bas (24 h): 0%
Eos (24 h): 1%
Fbg (24 h): 308 mg/dL
Hb (24 h): 13.2 g/dL
Ht (24 h): 41.1%
Lym (24 h): 81.2%
MCH (24 h): 20.4 pg
MCHC (24 h): 32.1%
MCV (24 h): 63.5 fL
Mono (24 h): 3%
Neu (24 h): 13.6%
PT (24 h): 16.2 s
Plat (24 h): 114.9 x10_4/uL
RBC (24 h): 647.2 x10_4/ul
Ret (24 h): 7%
WBC (24 h): 88.4 x10_2/uL
KIDNEY_L (24 h): 0.9 g
KIDNEY_R (24 h): 0.9 g
KIDNEY_TOTAL (24 h): 1.8 g
LIVER (24 h): 8.5 g
A/G (24 h): 0.9
ALP (24 h): 1944.4 IU/L
ALT (24 h): 46.8 IU/L
AST (24 h): 75 IU/L
BUN (24 h): 15.4 mg/dL
CRE (24 h): 0.2 mg/dL
Ca (24 h): 10.8 mg/dL
Cl (24 h): 108 meq/L
DBIL (24 h): 0.008 mg/dL
GLC (24 h): 185.4 mg/dL
IP (24 h): 8.1 mg/dL
K (24 h): 3.6 meq/L
LDH (24 h): 74 IU/L
Na (24 h): 142.2 meq/L
PL (24 h): 129.6 mg/dL
RALB (24 h): 2.7 g/dL
TBIL (24 h): 0.022 mg/dL
TC (24 h): 74.8 mg/dL
TG (24 h): 45.4 mg/dL
TP (24 h): 5.7 g/dL
gamma-GTP (24 h): 1 IU/L
